Here are results for one molecule from publication PMC12520456, “Regulating Enzyme Activity via Microaggregates Mediated by Phase Separation” (Advanced Science, 2025).

One data set relates to IgG. Put plainly: Fluorescence anisotropy specificity test. Type of data set: binding. The settings on record: fluorescently labeled DPMD; Figure S3I. The method, then: (§1) To validate the design, DPMD was synthesized using solid‐phase synthesis employing HOBt/HBTU and Fmoc chemistry, following a sequence schematic diagram depicted in Figure 1A. Subsequently, a single reverse column purification by High‐performance liquid chromatography (HPLC) yielded DPMD with purity exceeding 95% at a yield surpassing 60% (Figure S1B, Supporting Information). Circular dichroism (CD) spectra were recorded for a 40 µM DPMD sample in an aqueous solution containing 20% TFE at room temperature. The use of 20% TFE was necessary to obtain a clear spectrum, as it enhances peptide solubility and stabilizes secondary structure.^[ [9] ^] […] To further confirm that DPMD's enzymatic targeting is specific and not a broad‐spectrum protein aggregation effect, we tested DPMD against other pancreatic enzymes and abundant plasma proteins. Fluorescently labeled DPMD was mixed with elastase, pancreatic lipase, α‐amylase, carboxypeptidase A, bovine serum albumin (BSA), and IgG, respectively, and fluorescence anisotropy was measured to detect binding. […] For example, anisotropy values for DPMD + elastase (or lipase, amylase, etc.) remained near the baseline (DPMD‐alone) level, whereas DPMD + trypsin produced a pronounced anisotropy elevation (reflecting peptide‐enzyme complex formation and microaggregate assembly).
(§2) Figure S3. […]
(§3) (D-H) The fluorescent anisotropy
(§4) evaluation of binding affinity between DPMD peptide with elastase (D), lipase (E), amylase(F), carboxypeptidase
(§5) (G), albumin (H) and immunoglobulins (I). […]
(In fluorescence polarisation assays a small probe gives low polarisation when free and higher when bound to something large.)

The target of data set [1] is T1, bovine serum albumin (BSA) (Bos taurus, UniProt P02769).
T1 construct: purchased Psaitong Biotechnology
Put plainly: Fluorescence anisotropy specificity test. Type of data set: binding. The settings on record: fluorescently labeled DPMD; Figure S3H. The procedure: as §1, §2, §3, §4, §5

In a further data set the target is T2, elastase (Sus scrofa, UniProt P00772).
T2 construct: purchased Sangon
Put plainly: Fluorescence anisotropy specificity test. Particulars: fluorescently labeled DPMD; Figure S3D. Format: binding. The procedure:
as §1, §2, §3, §4, §5

The target of a further data set is T3, pancreatic lipase (Sus scrofa, UniProt P00591).
T3 construct: purchased Macklin
T3 sequence (P00591 1-450): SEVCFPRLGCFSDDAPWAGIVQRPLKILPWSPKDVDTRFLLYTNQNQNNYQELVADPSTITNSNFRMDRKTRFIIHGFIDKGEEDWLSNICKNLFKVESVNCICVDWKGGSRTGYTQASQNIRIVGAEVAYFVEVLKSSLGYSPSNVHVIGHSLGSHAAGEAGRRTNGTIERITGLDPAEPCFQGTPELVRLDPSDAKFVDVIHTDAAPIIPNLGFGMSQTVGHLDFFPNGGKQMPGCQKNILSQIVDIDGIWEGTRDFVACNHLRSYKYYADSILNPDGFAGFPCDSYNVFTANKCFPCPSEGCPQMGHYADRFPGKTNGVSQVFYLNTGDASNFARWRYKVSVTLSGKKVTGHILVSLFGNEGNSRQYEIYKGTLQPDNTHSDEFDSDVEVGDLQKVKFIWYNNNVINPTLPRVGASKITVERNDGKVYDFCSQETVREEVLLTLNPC
Put plainly: Fluorescence anisotropy specificity test. Type of data set: binding. Particulars: fluorescently labeled DPMD; Figure S3E. The procedure: as §1, §2, §3, §4, §5

Another data set is described as follows: Ca-binding assay. Particulars: peptide 0.625-30 mg/mL with 3 μg/mL Ca2+, 20 mM sodium phosphate buffer pH 7.4, 37 °C 30 min; supernatant calcium by kit; four independent repeats; Figure S1C. The text has this:
circular dichroism spectrum and molar ellipticity (kdeg·cm2/mol) on the y-axis.
3.3 Peptide Synthesis and DPMD Preparation
All peptides were synthetized according to the optimized HBTU activation/DIEA in situ neutralization protocol developed by […] on the CS bio 336X automated peptide synthesizer. Briefly, after cleavage and deprotection in a reagent cocktail containing 88% TFA, 5% phenol, 5% H2O and 2% TIPS, crude products were precipitated with cold ether and purified to homogeneity by preparative C18 reversed-phase HPLC. The molecular masses were ascertained by electrospray ionization mass spectrometry (ESI-MS). […]
0.22μm filter to remove residue. The calcium content of the supernatant was measured using the Calcium ion detection kit (Beyotime) according to the recommended method. […]
Peptide and enzyme solutions were prepared at varying concentrations and mixed at a 1:1 volume ratio. Solution turbidity was quantitatively assessed by monitoring absorbance at 405 nm using a BioTek spectrophotometer. For fluorescence-based characterization, peptides were labeled with FITC while enzymes were labeled with Cy5. […] For fluorescence recovery after photobleaching (FRAP) analysis, enzyme-aggregated patches were selectively bleached at 60% laser power using 488/640 nm lasers for 10 s, followed by time-lapse imaging at 1-min intervals. […]

Non-standard residues stand in square brackets, D forms with d. Residues, ends and D or L forms follow the SMILES beside them.

T2 sequence (P00772 27-266): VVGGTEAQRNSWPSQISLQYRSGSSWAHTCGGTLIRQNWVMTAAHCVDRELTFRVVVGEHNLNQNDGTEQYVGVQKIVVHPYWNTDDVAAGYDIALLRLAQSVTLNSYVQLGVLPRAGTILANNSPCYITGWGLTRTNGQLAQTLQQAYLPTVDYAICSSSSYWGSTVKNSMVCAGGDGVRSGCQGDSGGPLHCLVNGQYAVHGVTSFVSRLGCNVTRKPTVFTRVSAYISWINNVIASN
T1 sequence (P02769 25-607): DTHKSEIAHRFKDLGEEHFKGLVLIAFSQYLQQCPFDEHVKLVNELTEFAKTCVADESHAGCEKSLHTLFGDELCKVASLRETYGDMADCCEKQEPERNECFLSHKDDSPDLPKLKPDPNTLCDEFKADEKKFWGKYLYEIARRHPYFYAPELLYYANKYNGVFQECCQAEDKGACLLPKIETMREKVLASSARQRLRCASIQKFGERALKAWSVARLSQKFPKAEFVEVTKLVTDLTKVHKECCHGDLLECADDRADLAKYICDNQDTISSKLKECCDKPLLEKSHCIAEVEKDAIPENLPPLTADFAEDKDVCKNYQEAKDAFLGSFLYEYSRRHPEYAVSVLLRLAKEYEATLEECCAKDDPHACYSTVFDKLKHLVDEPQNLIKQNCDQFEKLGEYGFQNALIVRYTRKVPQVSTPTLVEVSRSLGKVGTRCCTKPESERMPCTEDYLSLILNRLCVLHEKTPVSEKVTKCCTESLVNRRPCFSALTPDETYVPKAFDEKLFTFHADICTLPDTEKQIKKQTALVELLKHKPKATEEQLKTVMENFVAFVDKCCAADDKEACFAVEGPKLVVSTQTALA

On to `CC[C@@H](C)[C@@H](NC(=O)[C@@H](CCC(N)=O)NC(=O)[C@H](NC(=O)[C@@H](Cc1ccc(O)cc1)NC(=O)CNC(=O)[C@@H](CC(C)C)NC(=O)[C@H](NC(=O)[C@@H](CO)NC(=O)CNC(=O)[C@@H](C)NC(=O)[C@@H](CC(=O)O)NC(=O)[C@@H](C)NC(=O)[C@@H](CCCNC(=N)N)NC(=O)[C@@H](C)NC(=O)[C@@H](CC(=O)O)NC(=O)[C@@H](C)NC(=O)[C@@H](CCCNC(=N)N)NC(=O)[C@@H](C)NC(=O)[C@@H](CC(=O)O)NC(=O)[C@@H](C)NC(=O)[C@@H](CCCNC(=N)N)NC(=O)[C@@H](C)NC(=O)[C@@H](CC(=O)O)NC(=O)[C@@H](C)NC(=O)[C@H](N)CCCNC(=N)N)C(C)C)[C@H](C)CC)C(=O)N[C@H](CCCNC(=N)N)C(=O)O` [DPMD, Ac‐(D‐RADA)4‐CONH2] (H-[dR][dA][dD][dA][dR][dA][dD][dA][dR][dA][dD][dA][dR][dA][dD][dA]G[dS][dV][dL]G[dY][dI][dQ][dI][dR]-OH; N-terminus and C-terminus assumed), for which the β-sheet content was 33.9%. Also, the “anisotropy increase with IgG” value in the data set on IgG was “no significant anisotropy increase”. For the same molecule, the “anisotropy increase with BSA” value in data set [1] is “no significant anisotropy increase”. Further, the “anisotropy increase with elastase” value at elastase was “no significant anisotropy increase”. The “anisotropy increase with pancreatic lipase” value on pancreatic lipase is reported as “no significant anisotropy increase”. Moreover, in the data set “Ca-binding assay”, the “Ca^2+ binding capacity” value is recorded as “clear binding affinity”.
